Assays:
[1] = type: in vivo, B6C3 mice; settings: for organ with the highest uptake: 5 min following tracer injection, blood, heart, lungs, liver, kidney; for DAR (differential absorption ratio), cerebellum / DAR (differential absorption ratio), cerebral cortex / DAR (differential absorption ratio), hippocampus / DAR (differential absorption ratio), prefrontal cortex / DAR (differential absorption ratio), striatum: 5 min post-injection, i.v.; for DAR (differential absorption ratio), cerebellum / DAR (differential absorption ratio), cerebral cortex / DAR (differential absorption ratio), hippocampus / DAR (differential absorption ratio), prefrontal cortex / DAR (differential absorption ratio), striatum / time of highest ratio of radioactivity uptake between forebrain regions and the cerebellum: mice; for clearance of radioactivity from the brain: mouse, in vivo; for time of highest ratio of radioactivity uptake between forebrain regions and the cerebellum: post-injection
Description: Male, 7-9 weeks old, B6C3 mice were used in all experiments. Animals were anaesthetized with an i.p. injection of Hypnorm/dormicum (12 ml/kg), after which [^18F]PK209 (as prepared in Example 26) (19.0±1.1 MBq at t0) or [^11C]PK083 (as prepared in Example 22) (24.4±3.5 MBq at t0) was administered via the tail vein, in a saline solution containing 10% ethanol (5 ml/kg). Following the injections, mice were killed by cervical dislocation at 5, 10, 30, or 60 min (n=4−6). At each time point, blood was obtained by heart punctures and selected organs, including the heart, liver, kidneys, lungs and brain were removed. The brain was further dissected into prefrontal cortex, striatum, cerebral cortex, hippocampus and cerebellum. All organs and brain areas were weighed, and recovered radioactivity was determined with a Compugamma (LKB Wallac), using 5×10 μl aliquots of the injected formulation as standard. Results are expressed as the differential absorption ratio (DAR): (cpm recovered/g tissue)/(cpm injected/g body weight). Two-way repeated measures ANOVA, followed by LSD post-hoc analysis was used for between-region (or organ) comparisons of radiotracer uptake at different time points.

[2] = physchem; type: physicochemical; settings: 1-octanol / 0.2M phosphate buffer pH 7.4, room temperature, triplicate; read-out: LogDoct,7.4
Description: The distribution of the radio labeled compounds between 1-octanol and 0.2M phosphate buffer (pH=7.4) was measured in triplicate at room temperature. Briefly, 1 mL of a 20 MBq/mL solution of the radio labeled compound in 0.2M phosphate buffer (pH=7.4) was vigorously mixed with 1 mL of 1-octanol for 1 min at room temperature using a vortex. After a settling period of 30 min, five samples of 100 μL were taken from both layers. For determining recovery, 5 samples of 100 μL were taken from the 20 MBq/mL solution. All samples were counted for radioactivity. The LogDoct,7.4 value was calculated according to LogDoct,7.4=^10Log(Aoct/Abuffer), where Aoct and Abuffer represent the average radioactivity counted of the 5 1-octanol and 5 buffer samples, respectively.

[3] = system: NMDA receptors; test: Ex vivo autoradiography and MK-801 blocking study; type: in vivo, mice
Description: To visualize the distribution and specificity of [^18F]PK209 or [^11C]PK083 for NMDA receptors, anaesthetized mice were injected with either saline or MK-801 (0.6 mg/kg, i.p.), 10 min before a tail-vein injection of each of the radiolabeled compounds (n=2). 5 min following injection of [^11C]PK083 or 15 min after [^18F]PK209 injection, mice were killed by cervical dislocation, and their brains were removed, frozen in liquid nitrogen and processed for quantitative autoradiography. Briefly, 20 μm coronal brain sections were cut at 300 μm intervals, from rostral to caudal areas. Sections from each mouse were opposed to Kodak Biomax MR-1 film, either immediately or following 2×30 sec washes in ice-cold Tris-HCl buffer (pH 7.4) and a dip in ice-cold demi water. Films were developed after 24 hr, and relevant optical density (ROD) values were obtained using the MCID software. Sections from control and MK-801 treated mice were processed in parallel. All brain regions were identified by reference to the mouse atlas of Franklin and Paxinos (2001).
Reference is made to FIG. 3. […] FIG. 3A the [^18F]209 specific binding (relevant optical density) is shown for (from left to right) frontal cortex, striatum, hippocampus, cerebral cortex and cerebellum. In FIG. 3B representative images are shown for (from bottom to top) cerebellum, hippocampus, striatum, cerebral cortex and frontal cortex.
Specific binding was defined as that […] pretreatment with MK-801 (0.6 mg/kg i.p.). […] Specific [^18F]PK-209 binding constituted 10% and 8% of total binding values in the hippocampus and the cerebral cortex, respectively.

[4] = biological target: NMDAR ion channel; test: Competition binding assay against [3H]MK-801 in rat forebrain membranes; settings: against 5 nM [3H]MK-801; mean±SEM of 2-6 independent determinations, each in triplicate
Description: Male Wistar rats (150-200 g) were killed by decapitation. The forebrains were rapidly removed and homogenized using a DUALL tissue homogenizer (10 strokes, 2000 rpm), in a 7-fold excess (v/w) of ice-cold 0.25 M sucrose. The nuclei and cell debris were removed by centrifugation (10 min x 400×g) in a Sorvall RC-6 refrigerated centrifuge (rotor SA600). The supernatant was decanted and the resulting pellet was rehomogenized in 5 vol 0.25 M sucrose and recentrifuged. The combined supernatants were diluted in Tris-acetate buffer (50 mM, pH 7.4) to a final dilution of 40 v/w, and centrifuged for 30 min×30,000×g, in order to obtain membranes from the cell surface, mitochondrial, and microsomal fractions. The pellet was resuspended in 20 vol of 50 mM Tris buffer containing 0.04% Triton X-100 (pH 7.4), and was kept at 25° C. for 2 hr before recentrifugation. The resulting pellet was suspended in Tris-HCl buffer (dilution 4, pH 7.4) and stored at −80° C. in 5 ml aliquots. On the day of each experiment, membranes were thawed to room temperature and washed twice by centrifugation (30 min×200,000×g). After the final centrifugation step, pellets were suspended in 50 mM Tris-HCl buffer (pH 7.4) and further diluted to 40 vol of buffer per g original weight wet tissue for competition binding experiments.
Protein concentration was determined using the BCA protein kit (Sigma-Aldrich, The Netherlands).
In vitro competition binding experiments were performed using 5 nM [^3H]MK-801 (specific activity 22.5 Ci/mmol; PerkinElmer, USA). All compounds as prepared in the Examples and listed in Table 2 were dissolved as 10 mM stock solutions in DMSO, and used in a concentration range from 10^−4 to 10^−12 M, with a maximal DMSO concentration of 1%. Competition binding experiments were conducted at room temperature, in a final volume of 500 μl assay buffer (50 mM Tris-HCl, pH 7.4), containing 1 μM L-glutamate and glycine. The incubation mixture was composed of 400 μl membrane suspension (protein concentration 1 μg/μL), 50 μL [^3H]MK-801, 45 μl assay buffer and 5 μl unlabeled drug solution. Nonspecific binding was determined in the presence of 30 μM GMOM. Incubations were terminated overnight by filtration, using a 48-well Brandel harvester and Whatman GF/B filters, presoaked in 0.3% polyethyleneimine. The filters were washed three times with 3 ml of ice-cold Tris-HCl buffer (pH 7.4), and radioactivity was subsequently determined by liquid scintillation spectrometry in 5 mL of Optiphase-HiSafe 3, at an efficiency of 40%.
Ki values were determined by nonlinear regression analysis using the equation: log EC50=log [10̂log Ki*(1+RadioligandNM/HotKdNM)], (GraphPad Software Inc., San Diego, Calif.).
In this table the Ki for the different compounds is stated. The Ki as measured against 5 nM [^3H]MK-801 and represent the mean±SEM Ki values of 2-6 independent determinations, each conducted in triplicate, The indexes (b), (c) and (d) describe the form in which the compound was tested: (b) fumaric acid salt, (c) free base, (d) hydrochloric acid salt.

[5] = quantitative autoradiography, relevant optical density

Q: Which results are given for `CSc1ccc(Cl)c(NC(=N)N([11CH3])c2cccc(OC(F)F)c2)c1` [[^11C]PK083, 1-(2-chloro-5-(methylthio)phenyl)-3-^11C-methyl-3-(3-(difluoromethoxy)phenyl)guanidine]?
A: organ with the highest uptake [1]: lungs; DAR (differential absorption ratio), cerebellum [1]: 0.55±0.07; DAR (differential absorption ratio), cerebral cortex [1]: 0.83±0.11; DAR (differential absorption ratio), hippocampus [1]: 1.41±0.46; DAR (differential absorption ratio), prefrontal cortex [1]: 0.96±0.16; DAR (differential absorption ratio), striatum [1]: 0.86±0.13; clearance of radioactivity from the brain [1]: rapidly cleared; time of highest ratio of radioactivity uptake between forebrain regions and the cerebellum [1]: 5 min; logD [2]: 1.76 ± 0.01

Q: Which “organ with the highest uptake” value [1] does the source give for `CSc1ccc(Cl)c(NC(=N)N(C)c2cccc(OC[18F])c2)c1` [[^18F]PK209] here?
A: lungs

Q: And the “DAR (differential absorption ratio), cerebellum” value [1]?
A: 0.84±0.09

Q: And the “DAR (differential absorption ratio), cerebral cortex” value [1]?
A: 1.17±0.07

Q: What about the “DAR (differential absorption ratio), hippocampus” value [1] of the same compound?
A: 1.05±0.09

Q: And the “DAR (differential absorption ratio), prefrontal cortex” value [1]?
A: 1.19±0.10

Q: What about the “DAR (differential absorption ratio), striatum” value [1] of the same compound?
A: 1.19±0.15

Q: What about the “clearance of radioactivity from the brain” value [1] of the same compound?
A: cleared rapidly

Q: And the “time of highest ratio of radioactivity uptake between forebrain regions and the cerebellum” value [1]?
A: 15 min

Q: And the logD [2]?
A: 1.45 ± 0.02

Q: And the “specific binding as share of total binding, cerebral cortex” value ([3]; 15 min after injection, MK-801 0.6 mg/kg i.p. pretreatment)?
A: 8%

Q: What about the “binding level, cerebellum” value [3, 5] of the same compound?
A: moderate

Q: What about the “binding level, cerebral cortex” value [3, 5] of the same compound?
A: high

Q: And the “binding level, frontal cortex” value [3, 5]?
A: low

Q: What about the “binding level, hippocampus” value [3, 5] of the same compound?
A: high

Q: And the “binding level, striatum” value [3, 5]?
A: low

Q: Which Ki [4] does the source give for `CSc1ccc(Cl)c(NC(=N)Nc2cccc(OC(F)F)c2)c1` [compound 7, 1-(2-chloro-5-(methylthio)phenyl)-3-(3-(difluoromethoxy)phenyl)guanidine] here?
A: 147 ± 15 nM

Q: Which Ki [4] does the source give for `CSc1ccc(Cl)c(NC(=N)Nc2cccc(OC(F)(F)F)c2)c1` [compound 8, 1-(2-chloro-5-(methylthio)phenyl)-3-(3-(trifluoromethoxy)phenyl)guanidine] here?
A: 235 ± 55.5 nM

Q: For `COc1cccc(N(C)C(=N)Nc2cc(SC)ccc2Cl)c1` [compound 14, reference compound], which Ki [4] is on record?
A: 21.7 ± 2.2 nM

Q: Which Ki [4] does the source give for `CSc1ccc(Cl)c(NC(=N)N(C)c2cccc(O)c2)c1` [compound 17, 3-(2-chloro-5-(methylthio)phenyl)-1-(3-hydroxyphenyl)-1-methylguanidine] here?
A: 551 ± 57.8 nM

Q: With `CSc1ccc(Cl)c(NC(=N)N(C)c2cccc(OC(F)F)c2)c1` [compound 18, 3-(2-chloro-5-(methylthio)phenyl)-1-(3-(difluoromethoxy)phenyl)-1-methylguanidine] as the compound, how does the Ki [4] read?
A: 10 ± 2 nM

Q: With `CSc1ccc(Cl)c(NC(=N)N(C)c2cccc(OC(F)(F)F)c2)c1` [compound 19, 3-(2-chloro-5-(methylthio)phenyl)-1-methyl-1-(3-(trifluoromethoxy)phenyl)guanidine] as the compound, how does the Ki [4] read?
A: 12 ± 2 nM

Q: Which Ki [4] does the source give for `CSc1ccc(Cl)c(NC(=N)N(C)c2cccc(OC(F)(F)C(F)F)c2)c1` [compound 20, 3-(2-chloro-5-(methylthio)phenyl)-1-methyl-1-(3-(1,1,2,2-tetrafluoroethoxy)phenyl)guanidine] here?
A: 56.7 ± 6.2 nM

Q: For `CSc1ccc(Cl)c(NC(=N)N(C)c2cccc(OCCCF)c2)c1` [compound 23, 3-(2-chloro-5-(methylthio)phenyl)-1-(3-(3-fluoropropoxy)phenyl)-1-methylguanidine], which Ki [4] is on record?
A: 179 ± 39 nM
